Pest or weed control and mortality data for seven compounds are collected here from patent publication US20230058623A1, “NOVEL HETEROARYL-TRIAZOLE COMPOUNDS AS PESTICIDES” (Bayer Aktiengesellschaft, priority 2019, published 2023).

The mortality is the share of the test organisms that died.

Structures are written as SMILES.

What all share (assay type): in vivo
The subject of test [1] is Rhipicephalus (Boophilus) microplus larvae (strain Parkhurst, resistant against synthetic pyrethroids). Description: Rhipicephalus (Boophilus) microplus in-vitro contact test, larval cattle tick. Particulars: after 48 hours, read-out: activity (efficacy: larvae dead or moribund); for pest or weed control at 1 µg/cm2, 100 g/ha: application rate 1 μg/cm^2 (=100 g/ha); for pest or weed control at 5 µg/cm2, 500 g/ha: application rate 5 μg/cm^2 (=500 g/ha). The procedure, abridged: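 Pyrethroid-resistant Parkhurst larvae, 20–50 per tube, were kept 48 h at 27 °C and 85% relative humidity in glass tubes whose inner walls carried a dried acetone film of compound (900 ppm giving 5 μg/cm^2). Dead or moribund larvae, judged by loss of negative geotactic behavior, set percent efficacy.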

For test [2], the system named is adult cat fleas (Ctenocephalides felis). The test can be described thus: Ctenocephalides felis in-vitro contact test, adult cat flea. Conditions: application rate 5 μg/cm^2 (=500 g/ha), after 48 hours, read-out: activity (efficacy: fleas dead or moribund). In a few lines:
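After 48 h of room-temperature exposure in tubes whose walls carried dried compound residue (5 μg/cm^2, from 900 ppm acetone solution), adult cat fleas (5-10 per tube) were heat-challenged at 45-50° C up to 5 min. Fleas unable to climb away were counted dead or moribund, expressed as % efficacy.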

Test [3] deals with adult unfed cat fleas (Ctenocephalides felis). The test can be described thus: Ctenocephalides felis oral test. Conditions: 48 h, read-out: activity (mortality). The procedure, abridged:
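About 20 adult unfed cat fleas fed through parafilm on citrated cattle blood containing compound (from a DMSO concentrate). Blood held at 37° C, fleas at room temperature. Mortality in % scored after 2 days.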

Test [4] relates to adult brown dog ticks (Rhipicephalus sanguineus). Description: Rhipicephalus sanguineus in-vitro contact test, adult brown dog ticks. Conditions: application rate 5 μg/cm^2 (=500 g/ha), after 48 hours, read-out: activity (efficacy: ticks dead or moribund). In a few lines:
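Read-out: % efficacy as dead or moribund ticks, judged 48 h after exposure by failure to climb away from a 45-50° C heating plate within 5 min. Tubes were coated with acetone solution (900 ppm = 5 μg/cm^2 surface dose) and held 5-10 adults each at room temperature.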

The subject of test [5] is green peach aphid (Myzus persicae). Description: Myzus persicae oral test. Particulars: 120 h, read-out: activity (mortality). In a few lines: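 Aphids of mixed population ingest the compound preparation by sucking through a parafilm sheet stretched over wells holding test solution plus IPL41 insect medium (33%+15% sugar). Kill rate in percent is determined five days later.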

Test [6] has as its system larvae of the southern green stink bug (Nezara viridula). Description: Nezara viridula spray test. Conditions: 96 h, application rate 100 g/ha, after 4 days, barley plants. The procedure, abridged:
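Barley plants sprayed with the active compound in emulsifier-containing water, then infested with stink bug larvae. Mortality scored in % after 4 days, with 100% meaning all insects killed.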

Test [7] concerns adult flies Musca domestica strain WHO-N. Description: Musca domestica test (MUSCDO surface treatment & contact assay). Particulars: 24 hours after contact, read-out: efficacy (mortality); for mortality at 20 mg/m2: surface concentration 20 mg/m^2, exposure 30 minutes; for mortality at 4 mg/m2: surface concentration 4 mg/m^2, exposure 30 minutes. The procedure, abridged:
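Compound dissolved at 2 mg/ml in acetone with 2000 ppm RME, applied to glazed tile and dried; adult flies exposed on the surface for 30 min. Percent mortality scored 24 h after contact.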

For test [8], the system named is larvae of the banded cucumber beetle (Diabrotica balteata). The test can be described thus: Diabrotica balteata spray test. Particulars: 168 h, application rate 100 g/ha (=32 μg/well), after 7 days, wheat seeds, read-out: activity (efficacy: seedlings grown). The procedure, abridged: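 Efficacy (%) read 7 days after infesting treated seedlings with 10-20 banded cucumber beetle larvae, 100% meaning growth as in uninfected untreated control and 0% no growth. Test solutions in water containing 1000 ppm emulsifier were sprayed onto wheat seeds germinated for 1 day on agar.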

On to `COC1CCCN(C(=O)c2ccc(-n3ncnc3[C@H](C)NC(=O)c3cc(C(F)(F)F)cc(C(F)(F)F)c3)nc2)C1` (some centres unmarked) [Example I-8], for which, in test [1], the pest or weed control at 1 µg/cm2, 100 g/ha came to 100% and the pest or weed control at 5 µg/cm2, 500 g/ha worked out at 100%. Moreover, in test [2], the pest or weed control at 5 µg/cm2 is 100%. The mortality at 100 ppm in test [3] stood at 100%. Besides, in test [4], the pest or weed control at 5 µg/cm2, 500 g/ha worked out at 100%. In addition, the mortality at 4 ppm in test [5] came to 100%. Also, the mortality at 100 g/ha in test [6] is 90%. Besides, in test [7], the mortality at 20 mg/m2 is 80 to 100%.
Consider `Cc1nc([C@H](C)NC(=O)c2cc(Cl)cc(C(F)(F)F)c2)n(-c2ccc(C(=O)N3CC(C)OC(C)C3)cn2)n1` (some centres unmarked) [Example I-29], for which, in test [1], the pest or weed control at 1 µg/cm2, 100 g/ha was determined as 100% and the pest or weed control at 5 µg/cm2, 500 g/ha stood at 100%. Further, the pest or weed control at 5 µg/cm2 in test [2] was 100%. Also, the mortality at 100 ppm in test [3] was determined as 100%. Besides, the pest or weed control at 5 µg/cm2, 500 g/ha in test [4] came to 100%. In addition, in test [8], the pest or weed control at 32 µg/disc, 100 g/ha is 100%. Also, in test [5], the mortality at 4 ppm is 100%. The compound further gave a mortality at 100 g/ha in test [6] of 90%. For the same compound, the mortality at 20 mg/m2 in test [7] is 80 to 100%.
As to `C[C@@H]1CN(C(=O)c2ccc(-n3ncnc3[C@H](C)NC(=O)c3cc(Cl)cc(C(F)(F)F)c3)nc2)C[C@H](C)O1` [Example I-31], the pest or weed control at 1 µg/cm2, 100 g/ha in test [1] is 100%. In addition, the pest or weed control at 5 µg/cm2, 500 g/ha in test [1] and in test [4] was 100% each time. Moreover, the pest or weed control at 5 µg/cm2 in test [2] worked out at 100%. Further, the mortality at 100 ppm in test [3] is 100%. In addition, in test [8], the pest or weed control at 32 µg/disc, 100 g/ha stood at 100%. In test [5], the mortality at 4 ppm came out at 100%. In test [6], this compound returned a mortality at 100 g/ha of 90%. In addition, in test [7], the mortality at 20 mg/m2 lay in the range of 80 to 100%.
As to `C[C@H](NC(=O)c1cc(Cl)cc(C(F)(F)F)c1)c1ncnn1-c1ccc(C(=O)N2CCSCC2)cn1` [Example I-36], in test [1], the pest or weed control at 1 µg/cm2, 100 g/ha turned out to be 100% and the pest or weed control at 5 µg/cm2, 500 g/ha came to 100%. Besides, the pest or weed control at 5 µg/cm2 in test [2] was 100%. The mortality at 100 ppm in test [3] came out at 100%. In addition, the pest or weed control at 5 µg/cm2, 500 g/ha in test [4] turned out to be 100%. Moreover, in test [8], the pest or weed control at 32 µg/disc, 100 g/ha came out at 80%. Besides, the mortality at 4 ppm in test [5] worked out at 100%. The compound also displayed a mortality at 100 g/ha in test [6] of 100%. Also, in test [7], the mortality at 4 mg/m2 is 80 to 100% and the mortality at 20 mg/m2 is 80 to 100%.
For the compound `Cc1nc([C@H](C)NC(=O)c2cc(C(F)(F)F)cc(C(F)(F)F)c2)n(-c2ccc(C(=O)N3C[C@@H](C)O[C@@H](C)C3)cn2)n1` [Example I-45], in test [1], the pest or weed control at 1 µg/cm2, 100 g/ha worked out at 100% and the pest or weed control at 5 µg/cm2, 500 g/ha came to 100%. For the same compound, the pest or weed control at 5 µg/cm2 in test [2] is 100%. The mortality at 100 ppm in test [3] is 100%. Besides, in test [4], the pest or weed control at 5 µg/cm2, 500 g/ha was found to be 100%. In test [8], the pest or weed control at 32 µg/disc, 100 g/ha stood at 100%. In addition, in test [5], the mortality at 4 ppm worked out at 100%. This compound registered a mortality at 100 g/ha in test [6] of 100%. Also, in test [7], the mortality at 4 mg/m2 lay within 80 to 100% and the mortality at 20 mg/m2 was in the range of 80 to 100%.
Take `C[C@@H]1CN(C(=O)c2ccc(-n3ncnc3[C@H](C)NC(=O)c3cc(C(F)(F)F)cc(C(F)(F)F)c3)nc2)C[C@@H](C)O1` [Example I-46]: in test [1], the pest or weed control at 1 µg/cm2, 100 g/ha worked out at 100% and the pest or weed control at 5 µg/cm2, 500 g/ha worked out at 100%. Moreover, the pest or weed control at 5 µg/cm2 in test [2] was 100%. In addition, the mortality at 100 ppm in test [3] is 100%. For the same compound, in test [4], the pest or weed control at 5 µg/cm2, 500 g/ha was 100%. For the same compound, in test [8], the pest or weed control at 32 µg/disc, 100 g/ha was determined as 100%. Moreover, in test [5], the mortality at 4 ppm was 100%. Moreover, the mortality at 100 g/ha in test [6] amounted to 100%. Moreover, the mortality at 20 mg/m2 in test [7] fell in the range of 80 to 100%.
With `C[C@@H]1CN(C(=O)c2ccc(-n3ncnc3[C@H](C)NC(=O)c3cc(C(F)(F)F)cc(C(F)(F)F)c3)nc2)C[C@H](C)O1` [Example I-50], in test [1], the pest or weed control at 1 µg/cm2, 100 g/ha was 100% and the pest or weed control at 5 µg/cm2, 500 g/ha amounted to 100%. Also, the pest or weed control at 5 µg/cm2 in test [2] came to 100%. In addition, the mortality at 100 ppm in test [3] was 100%. Moreover, in test [4], the pest or weed control at 5 µg/cm2, 500 g/ha came out at 100%. Moreover, the pest or weed control at 32 µg/disc, 100 g/ha in test [8] was determined as 100%. Also, the mortality at 4 ppm in test [5] was determined as 100%. This compound also yielded a mortality at 100 g/ha in test [6] of 100%. Further, in test [7], the mortality at 4 mg/m2 lay in the range of 80 to 100% and the mortality at 20 mg/m2 was 80 to 100%.
